# Biological target: T1, human PTH1 receptor (Homo sapiens, UniProt Q03431)
# T1 sequence (Q03431 27-593): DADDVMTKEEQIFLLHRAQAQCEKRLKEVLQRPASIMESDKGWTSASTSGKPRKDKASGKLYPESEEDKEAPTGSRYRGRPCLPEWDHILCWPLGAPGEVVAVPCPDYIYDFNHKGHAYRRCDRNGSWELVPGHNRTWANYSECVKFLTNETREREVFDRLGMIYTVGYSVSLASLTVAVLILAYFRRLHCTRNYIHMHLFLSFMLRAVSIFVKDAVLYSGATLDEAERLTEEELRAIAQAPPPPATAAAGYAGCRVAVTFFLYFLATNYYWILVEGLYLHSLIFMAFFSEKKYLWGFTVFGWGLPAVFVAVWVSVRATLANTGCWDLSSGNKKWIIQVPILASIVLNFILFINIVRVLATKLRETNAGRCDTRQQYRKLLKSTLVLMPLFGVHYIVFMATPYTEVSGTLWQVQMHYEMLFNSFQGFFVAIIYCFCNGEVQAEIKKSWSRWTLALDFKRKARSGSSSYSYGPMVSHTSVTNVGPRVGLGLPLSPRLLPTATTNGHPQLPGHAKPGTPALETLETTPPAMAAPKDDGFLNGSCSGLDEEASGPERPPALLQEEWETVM
# Assay: In vitro cAMP signal activity in HKRK-B7 cells (LLC-PK1 cells overexpressing the human PTH1 receptor)
# Type: cell-based
# Conditions: 0.1 µM
row,SMILES,cAMP production activity (%)
1,Cc1cc2ccc1CCS(=O)(=O)N1CCC3(CC1)N=C(NC3=O)c1cc(cc(C(F)(F)F)c1)OCC(F)(F)C(F)(F)C(F)(F)COCCN(C)C2=O [Compound 1441],5.0

# Same assay, conditions: HKRK-B7 cells; compound at 1×10^−3 M; cAMP produced as percentage of that produced by hPTH(1-34) at 100 nM
row,cAMP production activity (%),SMILES
1,10,Cc1cc2ccc1CCS(=O)(=O)N1CCC3(CC1)N=C(NC3=O)c1cc(cc(C(F)(F)F)c1)OCCOCCNC(=O)CN(C)C2=O [Compound 1440]
2,9.3,Cc1cc2ccc1CCS(=O)(=O)N1CCC3(CC1)N=C(NC3=O)c1cc(cc(C(F)(F)F)c1)OCCc1cn(nn1)CCCN(C)C2=O [Compound 1442]
3,61,"C=CCCCCCCCC(=O)N(C)c1cc(C)c(CCS(=O)(=O)N2CCC3(CC2)N=C(CCCCC=C)NC3=O)c(C)c1 [Compound 1443, dec-9-enoic acid {4-[2-(2-hex-5-enyl-4-oxo-1,3,8-triaza-spiro[4.5]dec-1-ene-8-sulfonyl)-ethyl]-3,5-dimethyl-phenyl}-methyl-amide]"
4,12,Cc1cc2cc(C)c1CCS(=O)(=O)N1CCC3(CC1)N=C(CCCC/C=C/CCCCCCCC(=O)N2C)NC3=O [Compound 1444]
5,62,Cc1cc2cc(C)c1CCS(=O)(=O)N1CCC3(CC1)N=C(CCCCCCCCCCCCCC(=O)N2C)NC3=O [Compound 1445]
6,88,"C=CCCCCC(=O)N(C)c1cc(C)c(CCS(=O)(=O)N2CCC3(CC2)N=C(CCCCC=C)NC3=O)c(C)c1 [Compound 1446, Hept-6-enoic acid {4-[2-(2-hex-5-enyl-4-oxo-1,3,8-triaza-spiro[4.5]dec-1-ene-8-sulfonyl)-ethyl]-3,5-dimethyl-phenyl}-methyl-amide]"

# The next lines start with the compound.
row,SMILES,cAMP production activity (%)
1,Cc1cc2ccc1CCS(=O)(=O)N1CCC3(CC1)N=C(NC3=O)c1cc(cc(C(F)(F)F)c1)OCCCCCO[C@H]1CN(C[C@@H]1O)C2=O [Compound 1425],32
2,Cc1cc2ccc1CCS(=O)(=O)N1CCC3(CC1)N=C(NC3=O)c1cc(cc(C(F)(F)F)c1)OCC/C=C/COCCNC2=O [Compound 1426],5.4
3,Cc1cc2ccc1CCS(=O)(=O)N1CCC3(CC1)N=C(NC3=O)c1cc(cc(C(F)(F)F)c1)OCCCCCOCCNC2=O [Compound 1427],72
4,Cc1cc2ccc1CCS(=O)(=O)N1CCC3(CC1)N=C(NC3=O)c1cc(cc(C(F)(F)F)c1)OCC/C=C/COCCN(CCO)C2=O [Compound 1428],67
5,Cc1cc2ccc1CCS(=O)(=O)N1CCC3(CC1)N=C(NC3=O)c1cc(cc(C(F)(F)F)c1)OCCCCCOCCN(CCO)C2=O [Compound 1429],8.9
6,Cc1cc2ccc1CCS(=O)(=O)N1CCC3(CC1)N=C(NC3=O)c1cc(cc(C(F)(F)F)c1)OCCC(O)C(O)CCCN(C)C2=O (centres unmarked) [Compound 1430],13
7,Cc1cc2ccc1CCS(=O)(=O)N1CCC3(CC1)N=C(NC3=O)c1ccc(C(F)(F)F)c(c1)OCCCC=COCCN(C)C2=O [Compound 1431],15
8,Cc1cc2ccc1CCS(=O)(=O)N1CCC3(CC1)N=C(NC3=O)c1ccc(C(F)(F)F)c(c1)OCCCCCOCCN(C)C2=O [Compound 1432],18
9,CCCCc1ccc2cc1OCCCCCOCCN(C)C(=O)c1ccc(c(C)c1)CCS(=O)(=O)N1CCC3(CC1)N=C2NC3=O [Compound 1434],54
10,Cc1cc2ccc1CCS(=O)(=O)N1CCC3(CC1)N=C(NC3=O)c1cc(cc(C(F)(F)F)c1)OCCC/C=C/COCCN(C)C2=O [Compound 1436],54
11,Cc1cc2ccc1CCS(=O)(=O)N1CCC3(CC1)N=C(NC3=O)c1cc(cc(C(F)(F)F)c1)OCCCCCCOCCN(C)C2=O [Compound 1437],57
12,Cc1cc2ccc1CCS(=O)(=O)N1CCC3(CC1)N=C(NC3=O)c1cc(cc(C(F)(F)F)c1)OCCOCCOCCN(C)C2=O [Compound 1438],40
13,Cc1cc2ccc1CCS(=O)(=O)N1CCC3(CC1)N=C(NC3=O)c1cc(cc(C(F)(F)F)c1)OCC[C@H](O)[C@H](O)COCCN(C)C2=O [Compound 1439],18

# Reference: patent US9169254B2, “Spiroimidazolone derivative” (Chugai Seiyaku Kabushiki Kaisha, priority 2009, dated 2015)
